Test results reported in patent US20220281899A1, “COMPOUND AND FLUORESCENTLY LABELED BIOLOGICAL SUBSTANCE USING THE SAME” (FUJIFILM Corporation, priority 2019, published 2022).

Experiments:
Format in all cases: physicochemical
[1] = Evaluation of water solubility (PBS pH 7.4, UHPLC concentration of filtrate); settings: compound; PBS pH 7.4, 1% DMSO, 200 μM if completely dissolved
Protocol: 5 μL of a DMSO solution having a concentration of 20 mM of the above compound (hereinafter, referred to as a sample) and 495 μL of PBS having a pH of 7.4 were added and mixed in a 1.5 mL Eppendorf tube and stirred with a multi-shaker MS300 (product name, AS ONE Corporation) at 2,000 rpm for 30 minutes. The obtained mixed solution was allowed to be left for 60 minutes with light shielding and then subjected to centrifugal precipitation (12,000 rpm, 5 minutes). For the filtrate filtered using a filter having a pore diameter of 0.20 μm, the sample concentration was measured with Nexera UHPLC [product name, manufactured by Shimadzu Corporation, column: Shim-pack XR-ODSII] (the sample concentration is 200 μM in a case where the sample is completely dissolved) and evaluated based on the following evaluation standards.
In the present test, it is determined that a compound has passed the evaluation of the water solubility in a case where the compound has a rank “B” or higher.
B: 10 μM or more and less than 100 μM
C: 1 μM or more and less than 10 μM […]
(§1) The water solubility and the fluorescence quantum of the labeled antibody were evaluated according to the same methods as those described in Example 1 except that in the evaluation of the water solubility and the fluorescence quantum yield in Example 1, the sample for measurement was changed from the compound to the labeled antibody.

[2] = Evaluation of fluorescence quantum yield (PBS solution, pH 7.4); settings: compound
Protocol: A PBS solution (pH 7.4) of the above compound was evaluated according to the method described in the following reference document.
“A Guide to Recording Fluorescence Quantum Yields” (a HORIBA Scientific document, available from https://www.horiba.com/fileadmin/uploads/Scientific/Documents/Fluorescence/quantumyields trad.pdf)
In the present test, it is preferable that the fluorescence quantum yield satisfies the evaluation rank “B” or higher from the viewpoint of practicality as the fluorescent compound.
B: 0.7 or more and less than 0.9
C: 0.5 or more and less than 0.7
D: 0.3 or more and less than 0.5
F: not evaluable due to low water solubility
as §1

[3] = Evaluation of light resistance in aqueous solution (xenon lamp exposure, absorbance decrease); settings: compound; PBS pH 7.4; xenon lamp 22 mW/cm^2
Protocol: The above compound or labeled antibody (hereinafter, referred to as a sample) was dissolved in PBS having a pH of 7.4 so that the absorbance at the absorption wavelength peak was 0.095 to 0.105. In a state of being exposed to light using a merry-go-round type light irradiator, the obtained solution was subjected to the temporal measurement of the absorbance of the absorption wavelength peak of the sample with a spectroscope (manufactured by Agilent Technologies, Inc., product name: Agilent 8453).
For the light exposure using the merry-go-round type light irradiator, a xenon lamp UXL-500D-O (product name) manufactured by Ushio, Inc. was used, and an HA-50 filter and a Y44 filter manufactured by HOYA were used as sharp cut filters (both are product names), where the light exposure intensity was 22 mW/cm^2 (in terms of 500 nm conversion).
The absorbance at the absorption peak wavelength before light exposure was set to 100% and the light exposure time until the absorbance at this absorption peak wavelength decreases by 50% (the absorbance at the absorption peak wavelength reaches 50%) was measured. The results were evaluated based on the following evaluation standards. A high evaluation rank is highly preferable since stability is kept for a long time.
B: 60 hours or more and less than 80 hours
C: 40 hours or more and less than 60 hours
D: 20 hours or more and less than 40 hours […]

| Compound | Water solubility [1] | Fluorescence quantum yield [2] | Light resistance (light exposure time until absorbance at absorption peak reaches 50%) [3] |
| --- | --- | --- | --- |
| CC1=CC(C)=[N+]2C1=C(C)c1c(C)cc(C)n1[B-]2(F)F [BODIPY493/503] | C (1 μM or more and less than 10 μM) | A (0.9 or more) | F (less than 10 hours) |
| Cc1cc(C)n2c1C=C1C=CC(CCC(=O)O)=[N+]1[B-]2(F)F [BODIPY FL] | C (1 μM or more and less than 10 μM) | B (0.7 or more and less than 0.9) | F (less than 10 hours) |
